Measurements published in patent US20160022775A1, “TREATING LYSOSOMAL STORAGE DISEASE” (UNIVERSITY OF ROCHESTER, priority 2013, published 2016).
“Also recorded” adds a separate entry of the source.

How the values were obtained:
primary OPCs [1] = assay: Screen for protection against OPC death induced by lethal concentrations of psychosine; format: cell-based, rat; settings: primary OPCs, lethal psychosine exposure
Description: (§1) Experiments were conducted to identify FDA-approved agents that rescue precursor cells of the CNS from the effects of the lipids thought to be toxic in KD, GD and MLD. To identify therapeutic agents that could be candidates for relatively rapid translation to the clinic, candidate agents were screened (based on cellular and molecular analyses) and unbiased drug screens were conducted using the NINDSII library of 1040 compounds approved by the FDA or in clinical trials. The intent of these screens was to discover previously unknown activities of agents for which pharmacokinetic and toxicological information is already available. The initial screening assays used are for (i) protection against OPC death induced by lethal concentrations of toxic lipids (48 hr exposure) and (ii) protection of OPC division induced by exposure to sublethal concentrations of toxic lipids.
In this screen, a library of 1040 compounds, either approved for use or in clinical trials, were examined at three different doses for their ability to protect against psychosine-induced cell death. […]

primary OPCs [2] = assay: Screen for protection of OPC division at sublethal concentrations of psychosine; format: cell-based, rat; settings: psychosine concentrations that suppress division without appreciable death
Description: as §1, with “lipids. […]” for “lipids.”

primary OPCs [3] = assay: Survival of OPCs exposed to toxic lipids (calcein AM / propidium iodide, CELIGO); format: cell-based
Description: Whether toxic lipids have similar effects on the function of oligodendrocyte precursor cells (OPCs, the direct ancestors of myelin-forming oligodendrocytes), due to the common features of myelin breakdown and failure to repair such damage in LSDs, was determined. These experiments all used standard techniques (see Mayer et al. PNAS, 91: 7496-7500 (1994); Ibarrola et al. Dev. Biol. 180: 1-121 (1996); Smith et al. PNAS 97: 10032-10037 (2000); Power et al. Dev. Biol. 245: 362-375 (2002); Dietrich et al. J. Biol. 5: e22 (2006); Li et al. PLoS Biol. 5: e35 (2007)), as adapted to enable rapid automated analysis of microscopy images captured using the CELIGO® imaging system (Brooks Automation, Chelmsford, Mass.). This system enables collection of data using brightfield and three-color fluorescence and provides similar information to be obtained at the single cell level in adherent cell cultures as yielded by flow cytometry. This approach enables quantitatively analysis of 80 different experimental conditions (in triplicate) per hour.
Studies on division and survival of OPCs exposed to 0.1, 0.5, 1, 2, 5 or 10 μM PC, GPS or LS were conducted for 1, 2, 3 or 5 days. These experiments followed standard procedures (see Mayer et al. PNAS, 91: 7496-7500 (1994); Dietrich et al. J. Biol. 5: e22 (2006); and Han et al. J. Biol. 7 (4):12 (2008)) except that cell death was quantified using calcein AM and propidium iodide (PI) labeling of live cultures was used to identify live and dead cells, respectively. […] These dyes effectively overcome the problems with dyes for which cell numbers are inferred from metabolic activity (e.g., MTT, Alamar Blue), and provide quantitative information on cell numbers. Independent confirmation was obtained in all cases by visual examination of cultures. In these, and all other cases, all experiments were repeated at least three times, and all data points were collected in triplicate. All experiments were conducted in conditions of 5% O2, to more closely mimic physiological oxygen concentrations.
The sensitivity of primary OPCs to PC was determined. The sensitivity of the cells to glucopsychosine (GPC) and lysosulfatide (LS) was also examined. […] Thus, OPCs are even more sensitive to PC than oligodendrocytes, which are sensitive at 10 μM psychosine. More critically, they are an order of magnitude more sensitive than indicated by studies described in Zaka et al. (Mol. Cell Neurosci. 30 (3): 398-407 (2005)) on immortalized cell lines.

Compound | rescue of cell survival from psychosine (primary OPCs [1]) | rescue of cell division from psychosine (primary OPCs [2]) | rescue of cell division from psychosine (primary OPCs [2]; listed as Chlorotrianisene) | exposure level as low as which toxic for OPCs (primary OPCs [3]) | exposure range toxic for primary OPCs and other primary CNS cells (primary OPCs [3])
COc1ccc(C(Cl)=C(c2ccc(OC)cc2)c2ccc(OC)cc2)cc1 [chlorotrianisene] | inhibit cell death and reduce suppression of cell division; also recorded: rescued both cell survival and cell division | inhibit cell death and reduce suppression of cell division | rescued both cell survival and cell division | – | –
CC(C)(C)CC(C)(C)c1ccc(O)c(Cc2ccc(Cl)cc2Cl)c1 [clofoctol] | inhibit cell death and reduce suppression of cell division; also recorded: rescued both cell survival and cell division | inhibit cell death and reduce suppression of cell division; also recorded: rescued both cell survival and cell division | – | – | –
C=C[C@@]1(C)CC(=O)[C@]2(O)[C@@]3(C)[C@@H](O)CCC(C)(C)[C@@H]3[C@H](O)[C@H](OC(C)=O)[C@@]2(C)O1 [colforsin] | inhibit cell death and reduce suppression of cell division; also recorded: rescued both cell survival and cell division | inhibit cell death and reduce suppression of cell division; also recorded: rescued both cell survival and cell division | – | – | –
CCCCCCCCCCCCC/C=C/[C@@H](O)[C@@H](N)CO[C@@H]1O[C@H](CO)[C@H](O)[C@H](OS(=O)(=O)O)[C@H]1O [lysosulfatide] | – | – | – | 3.304 | low micromolar range
CC(C)(C)NCC(O)c1ccccc1Cl (stereo not shown) [tulobuterol] | inhibit cell death and reduce suppression of cell division; also recorded: rescued both cell survival and cell division | inhibit cell death and reduce suppression of cell division; also recorded: rescued both cell survival and cell division | – | – | –
VEGF | ability to protect both cell division and cell survival; also recorded: inhibit cell death and reduce suppression of cell division | ability to protect both cell division and cell survival; also recorded: inhibit cell death and reduce suppression of cell division | – | – | –
